Laboratory results as given in US9518052B2, “Pyrazolopyridines and pyrazolopyrimidines” (Pfizer Inc., priority 2014, dated 2016).

Experiments:
[1] = test system: rhIFNγ stimulated STAT-3 phosphorylation in the A549 human epithelial cell line; assay: A549 Cell Assay: Inhibition of pSTAT3; type: cell-based; details: A549 cells
Experimental: A549 Cell Assay: Inhibition of pSTAT3
An assay measuring the efficacy of JAK inhibitors on the functional response of recombinant human interferon γ (rhIFNγ) stimulated STAT-3 phosphorylation in the A549 human epithelial cell line.
A549 cells (ATCC #CCL-185), were plated at 30,000 cells/well in 96 well flat bottomed tissue culture plates (BD#353072) in 200 μL of growth medium (DMEM, Pfizer media prep, with 10% Fetal Bovine Serum, Sigma #F4135, 2 mM L-Glutamine, Pfizer media prep, 100 U/mL penicillin, Pfizer media prep, and 200 μg/ml streptomycin, Pfizer media prep), and cultured at 37° C., 5% CO2 incubator for 18 hours. Growth medium was removed by vacuum aspiration (V&P Scientific #vp187 bp-60), and 90 μL of pre-warmed assay medium (DMEM with 0.2% BSA, Miltenyi #130-091-376) was added to each well and incubated for 15 minutes at 37° C. 10 μL of vehicle control or test compound (final concentration range of 0.3 nM to 10 μM with 0.1% DMSO) was added to the cells. Plates were incubated at 37° C. for 1 hour. After compound incubation, 10 μL of 220 ng/mL recombinant human IFNγ (R&D Systems #285-IF, final rhIFNγ concentration of 20 ng/mL) was added to the cells and plates were incubated for 30 minutes at 37° C. Wells containing A549 cells, medium with 0.1% DMSO and no rhIFNγ were used as background controls. After rhIFNγ stimulation, media was aspirated from each well and 35 μL/well of iced-cold MSD lysis buffer containing protease and phosphatase inhibitors from Phospho-STAT3 Tyr705 assay kit (Meso-Scale Discovery #K150DID) was added to each well. Plates were incubated at 4° C. with shaking for 30 minutes. Cell lysates were assayed following the MSD Phospho-STAT3 Tyr705 assay kit protocol to detect pSTAT3.
Data were collected and transformed into percent inhibition and calculated using the following formula: […]

[2] = target: TYK2 (Homo sapiens (Human), UniProt P29597); assay: JAK Caliper Enzyme Assay at 1 mM ATP (TYK2); type: biochemical; details: Caliper assay at 1 mM ATP
[3] = target: JAK3 (Homo sapiens (Human), UniProt P52333); assay: JAK Caliper Enzyme Assay at 1 mM ATP (JAK3); type: biochemical; details: Caliper assay at 1 mM ATP
[4] = target: JAK2 (Homo sapiens (Human), UniProt O60674); assay: JAK Caliper Enzyme Assay at 1 mM ATP (JAK2); type: biochemical; details: Caliper assay at 1 mM ATP
[5] = target: JAK1 (Homo sapiens (Human), UniProt P23458); assay: JAK Caliper Enzyme Assay at 1 mM ATP (JAK1); type: biochemical; details: Caliper assay at 1 mM ATP
Sequence of JAK1 (P23458 whole entry, species assumed): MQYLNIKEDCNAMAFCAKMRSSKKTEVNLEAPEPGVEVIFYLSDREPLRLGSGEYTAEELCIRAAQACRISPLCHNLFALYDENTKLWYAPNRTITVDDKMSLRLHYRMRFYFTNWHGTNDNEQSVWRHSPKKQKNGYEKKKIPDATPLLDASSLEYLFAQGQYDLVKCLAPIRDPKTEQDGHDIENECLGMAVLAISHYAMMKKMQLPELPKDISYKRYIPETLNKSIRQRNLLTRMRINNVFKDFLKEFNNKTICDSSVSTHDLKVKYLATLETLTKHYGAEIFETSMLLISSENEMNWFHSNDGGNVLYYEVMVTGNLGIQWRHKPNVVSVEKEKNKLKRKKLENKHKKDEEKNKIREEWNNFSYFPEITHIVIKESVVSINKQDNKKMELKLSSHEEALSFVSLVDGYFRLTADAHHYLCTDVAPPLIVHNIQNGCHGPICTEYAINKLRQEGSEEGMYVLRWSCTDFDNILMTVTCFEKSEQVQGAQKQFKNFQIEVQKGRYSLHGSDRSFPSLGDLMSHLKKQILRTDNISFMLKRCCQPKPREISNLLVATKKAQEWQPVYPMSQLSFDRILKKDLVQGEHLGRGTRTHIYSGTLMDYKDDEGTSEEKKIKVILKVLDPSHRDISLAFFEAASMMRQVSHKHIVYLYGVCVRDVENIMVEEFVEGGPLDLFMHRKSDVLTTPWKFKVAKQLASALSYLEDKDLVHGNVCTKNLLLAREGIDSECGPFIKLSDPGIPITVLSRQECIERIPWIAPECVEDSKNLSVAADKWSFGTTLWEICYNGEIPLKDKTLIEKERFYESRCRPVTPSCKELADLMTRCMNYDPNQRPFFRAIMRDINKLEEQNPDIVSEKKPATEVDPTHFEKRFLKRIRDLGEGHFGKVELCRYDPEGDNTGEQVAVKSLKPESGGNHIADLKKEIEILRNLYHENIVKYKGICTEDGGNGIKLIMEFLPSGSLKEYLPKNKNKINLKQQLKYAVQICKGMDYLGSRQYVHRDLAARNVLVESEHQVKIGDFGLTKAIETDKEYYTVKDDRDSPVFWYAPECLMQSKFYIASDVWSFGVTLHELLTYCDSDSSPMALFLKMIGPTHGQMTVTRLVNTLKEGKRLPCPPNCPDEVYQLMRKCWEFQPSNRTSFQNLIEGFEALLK

Sequence of JAK3 (P52333 whole entry, species assumed): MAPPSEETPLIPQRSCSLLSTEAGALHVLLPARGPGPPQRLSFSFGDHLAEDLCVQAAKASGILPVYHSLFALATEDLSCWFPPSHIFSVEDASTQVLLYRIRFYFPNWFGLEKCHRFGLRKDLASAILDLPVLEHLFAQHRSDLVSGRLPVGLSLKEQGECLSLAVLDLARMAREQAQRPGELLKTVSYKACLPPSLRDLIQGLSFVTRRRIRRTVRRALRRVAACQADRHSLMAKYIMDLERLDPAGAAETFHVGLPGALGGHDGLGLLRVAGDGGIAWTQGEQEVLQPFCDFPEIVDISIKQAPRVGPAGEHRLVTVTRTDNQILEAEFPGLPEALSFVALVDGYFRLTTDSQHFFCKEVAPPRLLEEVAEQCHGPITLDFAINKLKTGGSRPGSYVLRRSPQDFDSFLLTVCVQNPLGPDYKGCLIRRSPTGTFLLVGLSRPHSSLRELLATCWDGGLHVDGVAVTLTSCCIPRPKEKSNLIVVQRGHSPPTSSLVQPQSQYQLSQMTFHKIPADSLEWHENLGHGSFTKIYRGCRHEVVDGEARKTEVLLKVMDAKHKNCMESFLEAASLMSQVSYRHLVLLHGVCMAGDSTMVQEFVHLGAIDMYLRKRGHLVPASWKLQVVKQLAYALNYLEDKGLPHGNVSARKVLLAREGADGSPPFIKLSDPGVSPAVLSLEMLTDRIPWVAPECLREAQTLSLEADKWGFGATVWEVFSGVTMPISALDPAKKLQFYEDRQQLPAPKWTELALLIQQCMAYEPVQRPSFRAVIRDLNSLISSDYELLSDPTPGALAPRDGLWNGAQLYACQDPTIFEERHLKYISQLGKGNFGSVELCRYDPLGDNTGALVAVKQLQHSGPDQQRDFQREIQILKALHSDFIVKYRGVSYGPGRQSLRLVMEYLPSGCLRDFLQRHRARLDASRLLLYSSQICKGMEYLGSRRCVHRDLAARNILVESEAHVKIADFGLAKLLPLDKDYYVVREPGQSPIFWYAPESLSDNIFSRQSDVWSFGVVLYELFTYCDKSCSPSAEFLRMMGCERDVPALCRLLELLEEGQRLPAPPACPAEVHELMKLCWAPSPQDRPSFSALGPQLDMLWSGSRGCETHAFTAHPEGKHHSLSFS
Sequence of JAK2 (O60674 whole entry, species assumed): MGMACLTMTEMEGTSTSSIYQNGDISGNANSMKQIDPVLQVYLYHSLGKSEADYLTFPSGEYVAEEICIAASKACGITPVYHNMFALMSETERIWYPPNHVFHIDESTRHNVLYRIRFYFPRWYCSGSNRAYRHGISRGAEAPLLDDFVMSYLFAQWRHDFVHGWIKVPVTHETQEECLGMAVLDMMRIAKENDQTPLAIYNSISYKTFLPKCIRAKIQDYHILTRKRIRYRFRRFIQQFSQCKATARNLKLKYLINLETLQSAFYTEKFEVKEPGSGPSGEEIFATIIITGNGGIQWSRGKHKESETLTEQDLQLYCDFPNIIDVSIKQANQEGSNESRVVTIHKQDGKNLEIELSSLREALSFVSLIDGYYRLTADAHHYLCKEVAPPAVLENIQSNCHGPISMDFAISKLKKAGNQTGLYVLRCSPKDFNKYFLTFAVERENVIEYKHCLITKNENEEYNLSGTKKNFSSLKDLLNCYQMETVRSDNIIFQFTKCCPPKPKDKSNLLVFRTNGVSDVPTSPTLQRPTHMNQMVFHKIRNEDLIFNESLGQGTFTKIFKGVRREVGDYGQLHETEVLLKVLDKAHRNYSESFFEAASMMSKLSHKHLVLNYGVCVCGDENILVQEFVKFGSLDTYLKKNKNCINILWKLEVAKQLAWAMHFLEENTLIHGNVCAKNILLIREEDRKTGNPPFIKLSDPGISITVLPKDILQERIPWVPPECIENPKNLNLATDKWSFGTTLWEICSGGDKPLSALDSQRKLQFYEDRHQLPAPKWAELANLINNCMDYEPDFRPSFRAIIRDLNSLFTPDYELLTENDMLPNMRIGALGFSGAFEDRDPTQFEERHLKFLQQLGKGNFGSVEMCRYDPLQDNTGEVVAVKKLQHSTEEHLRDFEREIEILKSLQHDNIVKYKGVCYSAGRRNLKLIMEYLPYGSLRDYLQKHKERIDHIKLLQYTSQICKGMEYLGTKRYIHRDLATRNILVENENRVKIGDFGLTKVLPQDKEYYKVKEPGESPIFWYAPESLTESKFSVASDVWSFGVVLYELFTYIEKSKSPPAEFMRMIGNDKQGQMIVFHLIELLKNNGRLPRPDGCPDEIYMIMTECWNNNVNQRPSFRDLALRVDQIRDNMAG
Sequence of TYK2 (P29597 whole entry, species assumed): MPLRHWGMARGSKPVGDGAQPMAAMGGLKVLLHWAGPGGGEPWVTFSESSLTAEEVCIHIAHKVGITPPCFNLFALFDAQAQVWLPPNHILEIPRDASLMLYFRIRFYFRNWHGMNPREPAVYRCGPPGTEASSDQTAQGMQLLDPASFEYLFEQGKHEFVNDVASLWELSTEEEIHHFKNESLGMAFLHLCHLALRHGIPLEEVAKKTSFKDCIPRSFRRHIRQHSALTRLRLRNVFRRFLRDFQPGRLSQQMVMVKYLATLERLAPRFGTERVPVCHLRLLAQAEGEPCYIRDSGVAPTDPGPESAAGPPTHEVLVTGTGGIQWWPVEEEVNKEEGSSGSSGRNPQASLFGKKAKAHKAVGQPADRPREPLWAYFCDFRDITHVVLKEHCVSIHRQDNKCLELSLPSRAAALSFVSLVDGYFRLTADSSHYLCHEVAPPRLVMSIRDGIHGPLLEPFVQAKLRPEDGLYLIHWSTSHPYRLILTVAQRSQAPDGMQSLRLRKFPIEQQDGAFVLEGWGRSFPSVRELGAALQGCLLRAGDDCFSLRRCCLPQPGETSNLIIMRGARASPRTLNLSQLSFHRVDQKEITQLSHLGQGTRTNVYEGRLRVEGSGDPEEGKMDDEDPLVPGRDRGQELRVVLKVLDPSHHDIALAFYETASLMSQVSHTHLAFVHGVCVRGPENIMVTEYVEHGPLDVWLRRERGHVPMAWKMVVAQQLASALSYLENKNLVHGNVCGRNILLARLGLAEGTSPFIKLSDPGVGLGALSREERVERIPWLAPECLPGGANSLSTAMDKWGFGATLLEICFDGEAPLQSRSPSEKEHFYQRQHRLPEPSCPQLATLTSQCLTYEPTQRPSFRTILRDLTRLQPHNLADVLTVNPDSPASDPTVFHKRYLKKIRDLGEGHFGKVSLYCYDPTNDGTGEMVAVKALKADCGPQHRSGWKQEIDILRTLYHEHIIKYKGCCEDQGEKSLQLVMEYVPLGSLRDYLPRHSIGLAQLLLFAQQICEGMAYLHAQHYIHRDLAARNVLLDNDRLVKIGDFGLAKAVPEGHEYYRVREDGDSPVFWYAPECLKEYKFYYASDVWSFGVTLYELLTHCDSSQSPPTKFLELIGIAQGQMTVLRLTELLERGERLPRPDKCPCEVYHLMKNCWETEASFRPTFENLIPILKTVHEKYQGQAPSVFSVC

Structure (SMILES) | IC50 [1] [nM] | IC50 ([1]; Homo sapiens) [nM] | IC50 [2] [nM] | IC50 [3] [nM] | IC50 [4] [nM] | IC50 [5] [nM]
CCc1cc(O)c(F)cc1-c1cc2[nH]nc(C(=O)NC)c2c(NCc2cc(C)ccc2N(C)S(C)(=O)=O)n1 [Example 21, 6-(2-ethyl-5-fluoro-4-hydroxyphenyl)-N-methyl-4-({5-methyl-2-[methyl(methylsulfon-yl)amino]benzyl}ami-no)-1H-pyrazolo[4,3-c]pyridine-3-carboxamide] | 35.6 | – | – | – | – | –
CN(c1ccccc1CNc1nc(-c2cc(F)c(O)cc2CC(F)(F)F)nc2[nH]nc(-c3nnc(C4CCN(C(=O)CN5CCCC5)CC4)[nH]3)c12)S(C)(=O)=O [Example 168, N-(2-{[(6-[5-Fluoro-4-hydroxy-2-(2,2,2-trifluoroethyl)phenyl]-3-{5-[1-(pyrrolidin-1-ylacetyl)piperidin-4-yl]-4H-1,2,4-triazol-3-yl}-1H-pyrazolo[3,4-d]pyrimidin-4-yl)amino]methyl}phenyl)-N-methylmethanesulfonamide] | – | 13300 | – | – | – | –
CSCCNc1nc(-c2cc(F)c(O)cc2CC(F)(F)F)cc2[nH]nc(-c3nc4c([nH]3)CCN(Cc3ccccc3)C4)c12 [Example 161, 4-[3-(5-Benzyl-4,5,6,7-tetrahydro-1H-imidazo[4,5-c]pyridin-2-yl)-4-{[2-(methylsulfanyl)-ethyl]amino}-1H-pyrazolo[4,3-c]pyridin-6-yl]-2-fluoro-5-(2,2,2-trifluoroethyl)phenol] | – | > 10000 | – | – | – | –
CCc1cc(O)c(F)cc1-c1cc2[nH]nc(C(=O)NC)c2c(NCCc2ccc(NS(=O)(=O)c3ccccc3)cc2)n1 [Example 23, 6-(2-ethyl-5-fluoro-4-hydroxyphenyl)-N-methyl-4-[(2-{4-[(phenylsulfonyl)-amino]phenyl}ethyl)ami-no]-1H-pyrazolo[4,3-c]pyridine-3-carboxamide] | 51.4 | – | – | – | – | –
CNC(=O)c1n[nH]c2cc(-c3cc(F)c(O)cc3CC(F)(F)F)nc(NCc3cc(O)ccc3N(C)S(=O)(=O)c3cccnc3)c12 [Example 54, 6-[5-fluoro-4-hydroxy-2-(2,2,2-trifluoroethyl)phenyl]-4-({5-hydroxy-2-[methyl(pyridin-3-ylsulfonyl)amino]ben-zyl}amino)-N-methyl-1H-pyrazolo[4,3-c]pyridine-3-carboxamide] | 135 | – | – | – | – | –
Cc1cnc(N(C)S(C)(=O)=O)c(CNc2nc(-c3cc(F)c(O)cc3CC(F)(F)F)cc3[nH]nc(C(N)=O)c23)c1 [Example 86, 6-(5-fluoro-4-hydroxy-2-(2,2,2-trifluoroethyl)phenyl)-4-(((5-methyl-2-(N-methylmethylsulfonam-ido)pyridin-3-yl)methyl)amino)-1H-pyrazolo[4,3-c]pyridine-3-carboxamide] | 425 | – | – | – | – | –
CN(c1ccc(O)cc1CNc1nc(-c2cc(F)c(O)cc2CC(F)(F)F)nc2[nH]nc(C(N)=O)c12)S(C)(=O)=O [Example 97, 6-(5-Fluoro-4-hydroxy-2-(2,2,2-trifluoroethyl)phenyl)-4-((5-hydroxy-2-(N-methylmethylsulfonamido)benzyl)amino)-1H-pyrazolo[3,4-d]pyrimidine-3-carboxamide] | – | 2070 | – | – | – | –
CNC(=O)c1n[nH]c2cc(-c3cc(F)c(O)cc3CC(F)(F)F)nc(NCc3cc(Cl)ccc3N(C)S(C)(=O)=O)c12 [Example 15, 4-({5-chloro-2-[methyl(methyl-sulfonyl)amino]benzyl}amino)-6-[5-fluoro-4-hydroxy-2-(2,2,2-trifluoroethyl)phenyl]-N-methyl-1H-pyrazolo[4,3-c]pyridine-3-carboxamide] | – | – | 618 | 342 | 55 | 13.6
CCN(c1nccnc1CNc1nc(-c2cc(F)c(O)cc2CC(F)(F)F)cc2[nH]nc(C(=O)NC)c12)S(C)(=O)=O [Example 45, 4-[({3-[ethyl(methyl-sulfonyl)-amino]pyrazin-2-yl}methyl)amino]-6-[5-fluoro-4-hydroxy-2-(2,2,2-trifluoroethyl)phenyl]-N-methyl-1H-pyrazolo[4,3-c]pyridine-3-carboxamide] | – | – | 148 | 68.7 | 18.9 | 4
CNC(=O)c1n[nH]c2nc(-c3cc(F)c(O)cc3CC(F)(F)F)nc(NCc3ccccc3N(C)S(=O)(=O)NC)c12 [Example 110, 6-(5-Fluoro-4-hydroxy-2-(2,2,2-trifluoroethyl)phenyl)-N-methyl-4-((2-(methyl(N-methylsulfamoyl)amino)benzyl)amino)-1H-pyrazolo[3,4-d]pyrimidine-3-carboxamide] | – | – | 35 | 120 | 26.9 | 5.4
CCN(c1ncccc1CNc1nc(-c2cc(F)c(O)cc2CC(F)(F)F)cc2[nH]nc(C(N)=O)c12)S(C)(=O)=O [Example 52, 4-[({2-[ethyl(methyl-sulfonyl)-amino]pyridin-3-yl}methyl)amino]-6-[5-fluoro-4-hydroxy-2-(2,2,2-trifluoroethyl)phenyl]-1H-pyrazolo[4,3-c]pyridine-3-carboxamide] | – | – | 109 | 46.3 | 15 | 2.9
CN(c1ncc(Cl)cc1CNc1nc(-c2cc(F)c(O)cc2CC(F)(F)F)cc2[nH]nc(C(N)=O)c12)S(C)(=O)=O [Example 72, 4-[({5-chloro-2-[methyl(methylsulfonyl)amino]pyridin-3-yl}methyl)amino]-6-[5-fluoro-4-hydroxy-2-(2,2,2-trifluoroethyl)phenyl]-1H-pyrazolo[4,3-c]pyridine-3-carboxamide] | – | – | 3450 | 198 | 135 | 44.8
CNC(=O)c1n[nH]c2cc(-c3cc(F)c(O)cc3CC(F)(F)F)nc(NCc3cc(C)ccc3N(C)S(C)(=O)=O)c12 [Example 11, 6-[5-fluoro-4-hydroxy-2-(2,2,2-trifluoroethyl)phenyl]-N-methyl-4-({5-methyl-2-[methyl(methyl-sulfonyl)amino]benzyl}amino)-1H-pyrazolo[4,3-c]pyridine-3-carboxamide] | – | – | 229 | 207 | 36.9 | 8.7
CN(c1ccccc1CNc1nc(-c2cc(F)c(O)cc2CC(F)(F)F)cc2[nH]nc(C(N)=O)c12)S(=O)(=O)c1cccnc1 [Example 61, 6-[5-fluoro-4-hydroxy-2-(2,2,2-trifluoroethyl)phenyl]-4-({2-[methyl(pyridin-3-ylsulfonyl)amino]benzyl}amino)-1H-pyrazolo[4,3-c]pyridine-3-carboxamide] | – | – | 52.3 | 110 | 30.2 | 7.3
CC(C)CNc1nc(-c2cc(F)c(O)cc2CC(F)(F)F)nc2[nH]ncc12 [Example 153, 2-fluoro-4-{4-[(2-methyl-propyl)amino]-1H-pyrazolo[3,4-d]pyrimidin-6-yl}-5-(2,2,2-trifluoroethyl)phenol] | – | – | 7460 | 207 | 241 | 74
CCc1cc(O)c(F)cc1-c1cc2[nH]nc(C(=O)NC)c2c(NCC(C)C)n1 [Example 5, 6-(2-ethyl-5-fluoro-4-hydroxyphenyl)-N-methyl-4-[(2-methylpropyl)amino]-1H-pyrazolo[4,3-c]pyridine-3-carboxamide] | – | – | 7 | 31.9 | 7.5 | 2.1
CCN(c1ccc(O)cc1CNc1nc(-c2cc(F)c(O)cc2CC(F)(F)F)cc2[nH]nc(C(=O)NC)c12)S(C)(=O)=O [Example 34, 4-({2-[ethyl(methyl-sulfonyl)amino]-5-hydroxybenzyl}amino)-6-[5-fluoro-4-hydroxy-2-(2,2,2-trifluoroethyl)phenyl]-N-methyl-1H-pyrazolo[4,3-c]pyridine-3-carboxamide] | – | – | 24.6 | 98.4 | 27.8 | 5.1
CNC(=O)c1n[nH]c2cc(-c3cc(F)c(O)cc3CC(F)(F)F)nc(NCc3ccccc3N(C)S(=O)(=O)c3cn[nH]c3)c12 [Example 58, 6-(5-fluoro-4-hydroxy-2-(2,2,2-trifluoroethyl)phenyl)-N-methyl-4-((2-(N-methyl-1H-pyrazole-4-sulfonamido)benzyl)amino)-1H-pyrazolo[4,3-c]pyridine-3-carboxamide] | – | – | 67.5 | 236 | 54.4 | 10.3
CCN(c1ccc(O)cc1CNc1nc(-c2cc(F)c(O)cc2CC(F)(F)F)cc2[nH]nc(C(N)=O)c12)S(=O)(=O)c1ccccc1 [Example 43, 4-({2-[ethyl(phenyl-sulfonyl)amino]-5-hydroxybenzyl}amino)-6-[5-fluoro-4-hydroxy-2-(2,2,2-trifluoroethyl)-phenyl]-1H-pyrazolo[4,3-c]pyridine-3-carboxamide] | – | – | 439 | 1070 | 302 | 55.1
